Results taken from US20100048462A1, “TRUNCATED PTH PEPTIDES WITH A CYCLIC CONFORMATION” (Zealand Pharma A/S, priority 2006, published 2010).
Bridge positions count the residues as written; N and C are the ends. Square brackets hold non-standard residues; d marks the D form. Peptide text beside a SMILES is read from it. hArg = N=C(N)NCCCC[C@H](N)C(=O)O; Ac5c = NC1(C(=O)O)CCCC1; Nva = CCC[C@H](N)C(=O)O; Aib = CC(C)(N)C(=O)O

Target: T1, Saos-2 PTH1R (Homo sapiens, UniProt Q03431)
T1 construct: endogenous in cells; host or cells: Saos-2
T1 sequence (Q03431 27-593): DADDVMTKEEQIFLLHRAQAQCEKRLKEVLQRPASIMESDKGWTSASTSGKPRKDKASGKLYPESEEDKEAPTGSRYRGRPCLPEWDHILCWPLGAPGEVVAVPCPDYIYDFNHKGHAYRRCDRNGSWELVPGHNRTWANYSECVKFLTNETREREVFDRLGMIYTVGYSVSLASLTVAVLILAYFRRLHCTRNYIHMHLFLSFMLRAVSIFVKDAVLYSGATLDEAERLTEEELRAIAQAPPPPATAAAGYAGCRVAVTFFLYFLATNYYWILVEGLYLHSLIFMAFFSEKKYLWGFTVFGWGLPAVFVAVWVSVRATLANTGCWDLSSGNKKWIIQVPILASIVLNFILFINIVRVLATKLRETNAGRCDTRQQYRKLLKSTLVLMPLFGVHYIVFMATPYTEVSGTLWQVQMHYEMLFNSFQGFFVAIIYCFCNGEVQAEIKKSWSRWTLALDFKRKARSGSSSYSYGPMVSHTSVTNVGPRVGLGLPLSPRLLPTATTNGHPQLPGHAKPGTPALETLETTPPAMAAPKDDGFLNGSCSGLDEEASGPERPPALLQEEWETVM
Experiment: cAMP-efficacy assay in Saos-2 cells
Type: cell-based
Details: for EC50: cAMP, 100 μM IBMX, 37° C. 15 min, suffix of label = salt tested; for Emax ± SEM: relative effect to the control (SEQ ID NO: 32)
Protocol: Peptides were dissolved in phosphate buffered saline and further diluted in Tyrode's buffer (TB, Sigma-Aldrich) containing 0.1% BSA and 100 μM isobutyl-methyl-xanthine (IBMX, Sigma-Aldrich). Saos-2 cells were seeded at 50,000 cells/well in 96-microtiter plates and grown for two days before the efficacy assays. On the day of analysis, the growth medium was carefully removed by suction. Cells were washed once with 200 μl TB/0.1% BSA. The buffer was replaced with 100 μl reaction mixture (±test peptide), and incubated at 37° C. for 15 min. The reaction was stopped by addition of 25 μl of ice-cold 0.5 M HCl. Cells were in the following incubated on ice for 60 min. 75 μl acetate-buffer, pH6.2, was added to each well of a 96-well cAMP FlashPlate (Perkin-Elmer). […] FlashPlates were incubated overnight at 4° C., emptied by suction and counted in a TopCounter (Packard).
Determinations were performed in single determinations or triplicates at all doses. […] Standards were included as single determinations, duplicates or triplicates in each experiment, preferentially on each plate.
Concentration-dependent cAMP responses were imported into GraphPad Prism vers. 4 (GraphPad Software), transformed and plotted. […] Thus, a four-parameter logistic equation was used for determination of the EC50 values. Curves were fitted with a function for sigmoidal dose response curve (variable slope) non-linear fit Y=Bottom+(Top-Bottom)/(1+10̂((LogEC50−X)*HillSlope)) where X is the logarithm of concentration and Y is the response. Y starts at Bottom and goes to Top with a sigmoid shape. pEC50, Hill-coefficient and the maximally inducible concentration of cAMP (Emax) were evaluated.
Overall statistical differences were analyzed with Statistica (Statsoft) using one-way ANOVA. Post-hoc comparisons were made by the use of Fisher's Least Significance Test. Results were considered significant, when p was lower than 0.05.

SMILES | EC50 | Emax ± SEM
CCC[C@H](NC(=O)[C@@H](NC(=O)C1(N)CCCC1)C(C)C)C(=O)N[C@@H](CCC(=O)O)C(=O)N[C@H](C(=O)N[C@@H](CCC(N)=O)C(=O)N[C@@H](CC(C)C)C(=O)N[C@@H](CC(C)C)C(=O)N[C@@H](Cc1c[nH]cn1)C(=O)N[C@@H](CCC(N)=O)C(=O)N[C@@H](CCCCNC(=N)N)C(=O)N[C@@H](C)C(=O)N[C@H]1CCCCNC(=O)C[C@@H](C(N)=O)NC(=O)[C@H](CC(N)=O)NC(=O)[C@H](CC(C)C)NC(=O)[C@H](Cc2c[nH]c3ccccc23)NC1=O)[C@@H](C)CC [SEQ ID NO: 16, H-Ac5c-Val-Nva-Glu-Ile-Gln-Leu-Leu-His-Gln-Har-Ala-Lys( )-Trp-Leu-Asn-Asp( )-NH2] (H-[Ac5c]V[Nva]EIQLLHQ[hArg]AKWLND-NH2; lactam 13-17) | 120 nM | 1.03 ± 0.04
CC[C@H](C)[C@H](NC(=O)[C@H](CCC(=O)O)NC(=O)C(C)(C)NC(=O)[C@@H](NC(=O)C1(N)CCCC1)C(C)C)C(=O)N[C@@H](CCC(N)=O)C(=O)N[C@@H](CC(C)C)C(=O)N[C@@H](CCSC)C(=O)N[C@@H](Cc1c[nH]cn1)C(=O)N[C@@H](CCC(N)=O)C(=O)N[C@@H](CCCCNC(=N)N)C(=O)N[C@@H](C)C(=O)N[C@H]1CCCCNC(=O)C[C@@H](C(N)=O)NC(=O)[C@H](CC(N)=O)NC(=O)[C@H](CC(C)C)NC(=O)[C@H](Cc2c[nH]c3ccccc23)NC1=O [2A, H-Ac5c-Val-Aib-Glu-Ile-Gln-Leu-Met-His-Gln-Har-Ala-Lys( )Trp-Leu-Asn-Asp( )-NH2] (H-[Ac5c]V[Aib]EIQLMHQ[hArg]AKWLND-NH2; lactam 13-17) | 6.31 nM | 0.99 ± 0.03
CC[C@H](C)[C@H](NC(=O)[C@H](CCC(=O)O)NC(=O)C1(NC(=O)[C@@H](NC(=O)C2(N)CCCC2)C(C)C)CCCC1)C(=O)N[C@@H](CCC(N)=O)C(=O)N[C@@H](CC(C)C)C(=O)N[C@@H](CC(C)C)C(=O)N[C@@H](Cc1c[nH]cn1)C(=O)N[C@@H](CCC(N)=O)C(=O)N[C@@H](CCCCNC(=N)N)C(=O)N[C@@H](C)C(=O)N[C@H]1CCCCNC(=O)C[C@@H](C(N)=O)NC(=O)[C@H](CC(N)=O)NC(=O)[C@H](CC(C)C)NC(=O)[C@H](Cc2c[nH]c3ccccc23)NC1=O [SEQ ID NO: 14, H-Ac5c-Val-Ac5c-Glu-Ile-Gln-Leu-Leu-His-Gln-Har-Ala-Lys( )-Trp-Leu-Asn-Asp( )-NH2] (H-[Ac5c]V[Ac5c]EIQLLHQ[hArg]AKWLND-NH2; lactam 13-17) | 35.5 nM | 1.03 ± 0.05
CC[C@H](C)[C@H](NC(=O)[C@H](CCC(=O)O)NC(=O)C(C)(C)NC(=O)[C@@H](NC(=O)C1(N)CCCC1)C(C)C)C(=O)N[C@@H](CCC(N)=O)C(=O)N[C@@H](CC(C)C)C(=O)N[C@@H](CCSC)C(=O)N[C@@H](Cc1c[nH]cn1)C(=O)N[C@@H](CCC(N)=O)C(=O)N[C@@H](CCCCNC(=N)N)C(=O)N[C@@H](C)C(=O)N[C@H]1CCCCNC(=O)C[C@@H](C(N)=O)NC(=O)[C@H](CC(N)=O)NC(=O)[C@H](CC(C)C)NC(=O)[C@H](Cc2ccccc2)NC1=O [SEQ ID NO: 26, H-Ac5c-Val-Aib-Glu-Ile-Gln-Leu-Met-His-Gln-Har-Ala-Lys( )-Phe-Leu-Asn-Asp( )-NH2] (H-[Ac5c]V[Aib]EIQLMHQ[hArg]AKFLND-NH2; lactam 13-17) | 12.6 nM | 1.08 ± 0.09
CC[C@H](C)[C@H](NC(=O)[C@H](CCC(=O)O)NC(=O)C1(NC(=O)[C@@H](NC(=O)C(C)(C)N)C(C)C)CCCC1)C(=O)N[C@@H](CCC(N)=O)C(=O)N[C@@H](CC(C)C)C(=O)N[C@@H](CC(C)C)C(=O)N[C@@H](Cc1c[nH]cn1)C(=O)N[C@@H](CCC(N)=O)C(=O)N[C@@H](CCCCNC(=N)N)C(=O)N[C@@H](C)C(=O)N[C@H]1CCCCNC(=O)C[C@@H](C(N)=O)NC(=O)[C@H](CC(N)=O)NC(=O)[C@H](CC(C)C)NC(=O)[C@H](Cc2c[nH]c3ccccc23)NC1=O [SEQ ID NO: 13, H-Aib-Val-Ac5c-Glu-Ile-Gln-Leu-Leu-His-Gln-Har-Ala-Lys( )-Trp-Leu-Asn-Asp( )-NH2] (H-[Aib]V[Ac5c]EIQLLHQ[hArg]AKWLND-NH2; lactam 13-17) | 53.7 nM | 0.96 ± 0.03
CC[C@H](C)[C@H](NC(=O)[C@H](CCC(=O)O)NC(=O)C(C)(C)NC(=O)[C@@H](NC(=O)C1(N)CCCC1)C(C)C)C(=O)N[C@@H](CCC(N)=O)C(=O)N[C@@H](Cc1ccccc1)C(=O)N[C@@H](CC(C)C)C(=O)N[C@@H](Cc1c[nH]cn1)C(=O)N[C@@H](CCC(N)=O)C(=O)N[C@@H](CCCCNC(=N)N)C(=O)N[C@@H](C)C(=O)N[C@H]1CCCCNC(=O)C[C@@H](C(N)=O)NC(=O)[C@H](CC(N)=O)NC(=O)[C@H](CC(C)C)NC(=O)[C@H](Cc2c[nH]c3ccccc23)NC1=O [SEQ ID NO: 27, H-Ac5c-Val-Aib-Glu-Ile-Gln-Phe-Leu-His-Gln-Har-Ala-Lys( )-Trp-Leu-Asn-Asp( )-NH2] (H-[Ac5c]V[Aib]EIQFLHQ[hArg]AKWLND-NH2; lactam 13-17) | 12.3 nM | 0.92 ± 0.06
CC[C@H](C)[C@H](NC(=O)[C@H](CCC(=O)O)NC(=O)C(C)(C)NC(=O)[C@@H](NC(=O)C1(N)CCCC1)C(C)C)C(=O)N[C@@H](CCC(N)=O)C(=O)N[C@@H](CC(C)C)C(=O)N[C@@H](CCSC)C(=O)N[C@@H](Cc1c[nH]cn1)C(=O)N[C@@H](CC(N)=O)C(=O)N[C@@H](CC(C)C)C(=O)NCC(=O)N[C@@H](CCCCN)C(=O)N[C@@H](Cc1c[nH]cn1)C(=O)N[C@@H](CC(C)C)C(=O)N[C@@H](CC(N)=O)C(=O)N[C@@H](CO)C(N)=O [SEQ ID NO: 35] (H-[Ac5c]V[Aib]EIQLMHNLGKHLNS-NH2) | 8130 nM | 1.20 ± 0.01
CC[C@H](C)[C@H](NC(=O)[C@H](CCC(=O)O)NC(=O)C(C)(C)NC(=O)[C@@H](NC(=O)C1(N)CCCC1)C(C)C)C(=O)N[C@@H](CCC(N)=O)C(=O)N[C@@H](CC(C)C)C(=O)N[C@@H](CCSC)C(=O)N[C@@H](Cc1c[nH]cn1)C(=O)N[C@@H](CCC(N)=O)C(=O)N[C@@H](CCCCNC(=N)N)C(=O)N[C@@H](C)C(=O)N[C@H]1CCCCNC(=O)C[C@@H](C(N)=O)NC(=O)[C@H](CC(N)=O)NC(=O)[C@H](CC(C)C)NC(=O)[C@H](Cc2c[nH]c3ccccc23)NC1=O [2T, H-Ac5c-Val-Aib-Glu-Ile-Gln-Leu-Met-His-Gln-Har-Ala-Lys( )Trp-Leu-Asn-Asp( )-NH2] (H-[Ac5c]V[Aib]EIQLMHQ[hArg]AKWLND-NH2; lactam 13-17) | 6.61 nM | 0.70 ± 0.09
CC[C@H](C)[C@H](NC(=O)[C@H](CCC(=O)O)NC(=O)C(C)(C)NC(=O)[C@@H](NC(=O)C1(N)CCCC1)C(C)C)C(=O)N[C@@H](CCC(N)=O)C(=O)N[C@@H](CC(C)C)C(=O)N[C@@H](CC(C)C)C(=O)N[C@@H](Cc1c[nH]cn1)C(=O)N[C@@H](CCC(N)=O)C(=O)N[C@@H](CCCCNC(=N)N)C(=O)N[C@@H](C)C(=O)N[C@H]1CCCCNC(=O)C[C@@H](C(=O)O)NC(=O)[C@H](CC(N)=O)NC(=O)[C@H](CC(C)C)NC(=O)[C@H](Cc2c[nH]c3ccccc23)NC1=O [SEQ ID NO: 5, H-Ac5c-Val-Aib-Glu-Ile-Gln-Leu-Leu-His-Gln-Har-Ala-Lys( )-Trp-Leu-Asn-Asp( )-OH] (H-[Ac5c]V[Aib]EIQLLHQ[hArg]AKWLND-OH; lactam 13-17) | 72.4 nM | 1.16 ± 0.12
CC[C@H](C)[C@H](NC(=O)[C@H](CCC(=O)O)NC(=O)C(C)(C)NC(=O)[C@@H](NC(=O)C1(N)CCCC1)C(C)C)C(=O)N[C@@H](CCC(N)=O)C(=O)N[C@@H](CC(C)C)C(=O)N[C@@H](CCSC)C(=O)N[C@@H](Cc1c[nH]cn1)C(=O)N[C@@H](CCC(N)=O)C(=O)N[C@@H](CCCNC(=N)N)C(=O)N[C@@H](C)C(=O)N[C@H]1CCCCNC(=O)C[C@@H](C(N)=O)NC(=O)[C@H](CC(N)=O)NC(=O)[C@H](CC(C)C)NC(=O)[C@H](Cc2c[nH]c3ccccc23)NC1=O [SEQ ID NO: 25] (H-[Ac5c]V[Aib]EIQLMHQRAKWLND-NH2; lactam 13-17) | 8.91 nM | 1.04 ± 0.03
